Laboratory results: ChEMBL document CHEMBL2177002, “Antifungal spectrum, in vivo efficacy, and structure-activity relationship of ilicicolin h” (ACS Med Chem Lett, 2012)
Values after ≈ are worked out from the molar mass of the structure shown. Active and inactive are the calls of the source. No cut-off for these calls is given here.

Tests used:
Candida albicans [1] = assay: Antifungal activity against Candida albicans MY 1055 after 24 hrs by NCCLS broth microdilution method; format: functional; settings: for MIC: MY 1055, 24 h
Cryptococcus neoformans [2] = assay: Antifungal activity against Cryptococcus neoformans MY 2061 after 40 hrs by NCCLS broth microdilution method; format: functional
[3] = tested on: Meyerozyma guilliermondii; assay: Antifungal activity against Candida guilliermondii CLY 346 after 24 hrs by NCCLS broth microdilution method; format: functional
[4] = tested on: Meyerozyma guilliermondii; assay: Antifungal activity against Candida guilliermondii CLY 308 after 24 hrs by NCCLS broth microdilution method; format: functional
Nakaseomyces glabratus [5] = assay: Antifungal activity against Candida glabrata MY 1381 after 24 hrs by NCCLS broth microdilution method; format: functional
Nakaseomyces glabratus [6] = assay: Antifungal activity against Candida glabrata CLY 574 after 24 hrs by NCCLS broth microdilution method; format: functional
Candida albicans [7] = assay: Antifungal activity against Candida albicans SC 53124 after 24 hrs by NCCLS broth microdilution method; format: functional
Candida albicans [8] = assay: Antifungal activity against fluconazole-resistant Candida albicans MY 2301 after 24 hrs by NCCLS broth microdilution method; format: functional
Pichia kudriavzevii = assay: Antifungal activity against Candida krusei CLY 549 after 24 hrs by NCCLS broth microdilution method; format: functional
Clavispora lusitaniae = assay: Antifungal activity against Candida lusitaniae MY 1396 after 24 hrs by NCCLS broth microdilution method; format: functional
Candida parapsilosis = assay: Antifungal activity against Candida parapsilosis ATCC 22019 after 24 hrs by NCCLS broth microdilution method; format: functional
Candida tropicalis = assay: Antifungal activity against Candida tropicalis MY 1012 after 40 hrs by NCCLS broth microdilution method; format: functional
Cryptococcus neoformans [9] = assay: Antifungal activity against Cryptococcus neoformans H 99 after 40 hrs by NCCLS broth microdilution method; format: functional
[10] = tested on: Cytochrome b (Saccharomyces cerevisiae (strain ATCC 204508 / S288c) (Baker's yeast)), P00163 [L198F]; assay: Inhibition of Saccharomyces cerevisiae isolate 1 cytochrome bc1 complex harboring cytochrome b L198F mutant
[11] = tested on: Cytochrome b (Candida albicans (strain SC5314 / ATCC MYA-2876) (Yeast)), P0C8L0 [G37S]; assay: Inhibition of Candida albicans isolate 6 cytochrome bc1 complex harboring cytochrome b G37S mutant
[12] = tested on: Cytochrome b (Candida albicans (strain SC5314 / ATCC MYA-2876) (Yeast)), P0C8L0 [G37D]; assay: Inhibition of Candida albicans isolate 4 cytochrome bc1 complex harboring cytochrome b G37D mutant
[13] = tested on: Cytochrome b (Candida albicans (strain SC5314 / ATCC MYA-2876) (Yeast)), P0C8L0 [G37C]; assay: Inhibition of Candida albicans isolate 3 cytochrome bc1 complex harboring cytochrome b G37C mutant
[14] = tested on: Cytochrome b (Candida albicans (strain SC5314 / ATCC MYA-2876) (Yeast)), P0C8L0 [Q22E]; assay: Inhibition of Candida albicans isolate 2 cytochrome bc1 complex harboring cytochrome b Q22E mutant
[15] = tested on: Cytochrome b (Candida albicans (strain SC5314 / ATCC MYA-2876) (Yeast)), P0C8L0 [S20I]; assay: Inhibition of Candida albicans isolate 1 cytochrome bc1 complex harboring cytochrome b S20I mutant
[16] = tested on: Cytochrome b (Saccharomyces cerevisiae (strain ATCC 204508 / S288c) (Baker's yeast)), P00163 [G37S]; assay: Inhibition of Saccharomyces cerevisiae isolate 2 cytochrome bc1 complex harboring cytochrome b G37S mutant
[17] = tested on: Cytochrome b (Saccharomyces cerevisiae (strain ATCC 204508 / S288c) (Baker's yeast)), P00163 [G37D]; assay: Inhibition of Saccharomyces cerevisiae isolate 2 cytochrome bc1 complex harboring cytochrome b G37D mutant
[18] = tested on: Cytochrome b (Saccharomyces cerevisiae (strain ATCC 204508 / S288c) (Baker's yeast)), P00163 [Q22T]; assay: Inhibition of Saccharomyces cerevisiae isolate 2 cytochrome bc1 complex harboring cytochrome b Q22T mutant
[19] = tested on: Cytochrome b (Saccharomyces cerevisiae (strain ATCC 204508 / S288c) (Baker's yeast)), P00163 [Q22E]; assay: Inhibition of Saccharomyces cerevisiae isolate 3 cytochrome bc1 complex harboring cytochrome b Q22E mutant
[20] = tested on: Cytochrome b (Saccharomyces cerevisiae (strain ATCC 204508 / S288c) (Baker's yeast)), P00163 [S20L]; assay: Inhibition of Saccharomyces cerevisiae isolate 1 cytochrome bc1 harboring cytochrome b S20L mutant
[21] = tested on: Cytochrome b (Saccharomyces cerevisiae (strain ATCC 204508 / S288c) (Baker's yeast)), P00163 [S20T]; assay: Inhibition of Saccharomyces cerevisiae isolate 1 cytochrome bc1 harboring cytochrome b S20T mutant
[22] = Selectivity ratio of MIC for Candida albicans MY 1055 to IC50 for Candida albicans MY 1055 NADH:cytochrome c oxidoreductase; format: functional
[23] = Inhibition of Candida albicans MY 1055 NADH:cytochrome c oxidoreductase

Cytochrome b (Saccharomyces cerevisiae (strain ATCC 204508 / S288c) (Baker's yeast)), P00163 [G37D], sequence (P00163 whole entry G37D): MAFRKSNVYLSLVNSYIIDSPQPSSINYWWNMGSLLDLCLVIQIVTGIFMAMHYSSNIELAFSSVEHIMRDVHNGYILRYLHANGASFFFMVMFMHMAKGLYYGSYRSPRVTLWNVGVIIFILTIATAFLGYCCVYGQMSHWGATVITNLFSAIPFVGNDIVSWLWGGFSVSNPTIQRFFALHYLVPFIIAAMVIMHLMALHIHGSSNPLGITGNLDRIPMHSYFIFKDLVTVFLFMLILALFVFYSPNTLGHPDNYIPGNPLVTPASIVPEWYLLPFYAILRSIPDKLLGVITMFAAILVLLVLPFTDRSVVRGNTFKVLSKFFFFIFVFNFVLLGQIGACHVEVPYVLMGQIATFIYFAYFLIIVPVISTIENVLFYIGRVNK
Cytochrome b (Candida albicans (strain SC5314 / ATCC MYA-2876) (Yeast)), P0C8L0 [Q22E], sequence (P0C8L0 whole entry Q22E): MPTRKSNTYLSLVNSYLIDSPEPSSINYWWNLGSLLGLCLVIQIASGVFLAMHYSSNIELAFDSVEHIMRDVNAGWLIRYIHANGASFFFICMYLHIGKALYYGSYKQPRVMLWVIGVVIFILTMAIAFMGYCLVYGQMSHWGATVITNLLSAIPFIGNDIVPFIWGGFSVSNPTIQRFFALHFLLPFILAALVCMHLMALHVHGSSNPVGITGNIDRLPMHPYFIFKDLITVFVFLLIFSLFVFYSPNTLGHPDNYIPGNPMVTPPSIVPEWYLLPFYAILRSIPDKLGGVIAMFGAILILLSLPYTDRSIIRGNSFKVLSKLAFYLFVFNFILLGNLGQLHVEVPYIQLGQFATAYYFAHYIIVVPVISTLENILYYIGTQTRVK
Cytochrome b (Candida albicans (strain SC5314 / ATCC MYA-2876) (Yeast)), P0C8L0 [S20I], sequence (P0C8L0 whole entry S20I): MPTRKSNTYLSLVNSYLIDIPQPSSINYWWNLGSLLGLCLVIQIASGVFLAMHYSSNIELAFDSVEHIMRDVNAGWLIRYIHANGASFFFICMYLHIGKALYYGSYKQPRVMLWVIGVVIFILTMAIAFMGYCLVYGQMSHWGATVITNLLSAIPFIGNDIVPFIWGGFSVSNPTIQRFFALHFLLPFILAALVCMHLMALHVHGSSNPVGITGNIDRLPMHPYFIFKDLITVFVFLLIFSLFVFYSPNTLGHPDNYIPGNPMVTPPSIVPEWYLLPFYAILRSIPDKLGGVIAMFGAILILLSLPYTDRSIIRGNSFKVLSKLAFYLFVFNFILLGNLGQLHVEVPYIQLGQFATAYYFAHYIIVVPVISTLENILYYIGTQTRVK
Cytochrome b (Saccharomyces cerevisiae (strain ATCC 204508 / S288c) (Baker's yeast)), P00163 [Q22E], sequence (P00163 whole entry Q22E): as the sequence (P00163 whole entry G37D) above, with Q22E, D37G counted along it
Cytochrome b (Candida albicans (strain SC5314 / ATCC MYA-2876) (Yeast)), P0C8L0 [G37S], sequence (P0C8L0 whole entry G37S): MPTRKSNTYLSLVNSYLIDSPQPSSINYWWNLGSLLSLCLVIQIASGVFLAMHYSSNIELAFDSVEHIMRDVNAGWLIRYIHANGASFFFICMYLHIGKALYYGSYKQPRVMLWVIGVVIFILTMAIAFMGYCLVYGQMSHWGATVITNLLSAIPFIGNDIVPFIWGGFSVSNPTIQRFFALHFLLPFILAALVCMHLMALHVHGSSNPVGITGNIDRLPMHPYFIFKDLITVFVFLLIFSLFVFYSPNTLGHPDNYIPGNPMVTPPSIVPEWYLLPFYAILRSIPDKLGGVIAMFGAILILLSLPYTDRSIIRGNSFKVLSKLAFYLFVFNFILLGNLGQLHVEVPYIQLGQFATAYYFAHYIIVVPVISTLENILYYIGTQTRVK
Cytochrome b (Saccharomyces cerevisiae (strain ATCC 204508 / S288c) (Baker's yeast)), P00163 [G37S], sequence (P00163 whole entry G37S): as the sequence (P00163 whole entry G37D) above, with D37S counted along it
Cytochrome b (Saccharomyces cerevisiae (strain ATCC 204508 / S288c) (Baker's yeast)), P00163 [S20L], sequence (P00163 whole entry S20L): as the sequence (P00163 whole entry G37D) above, with S20L, D37G counted along it
Cytochrome b (Saccharomyces cerevisiae (strain ATCC 204508 / S288c) (Baker's yeast)), P00163 [L198F], sequence (P00163 whole entry L198F): as the sequence (P00163 whole entry G37D) above, with D37G, L198F counted along it
Cytochrome b (Candida albicans (strain SC5314 / ATCC MYA-2876) (Yeast)), P0C8L0 [G37D], sequence (P0C8L0 whole entry G37D): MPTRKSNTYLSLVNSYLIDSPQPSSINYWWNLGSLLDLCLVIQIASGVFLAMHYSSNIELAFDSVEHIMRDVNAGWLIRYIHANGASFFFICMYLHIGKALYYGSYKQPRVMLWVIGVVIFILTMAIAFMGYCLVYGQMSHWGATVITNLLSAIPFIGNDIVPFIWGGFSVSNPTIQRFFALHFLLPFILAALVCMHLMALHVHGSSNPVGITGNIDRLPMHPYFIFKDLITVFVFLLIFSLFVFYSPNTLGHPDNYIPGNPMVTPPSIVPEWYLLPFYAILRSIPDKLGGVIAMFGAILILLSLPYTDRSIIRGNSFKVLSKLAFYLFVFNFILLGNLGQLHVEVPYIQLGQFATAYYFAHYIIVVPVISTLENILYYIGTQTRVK
Cytochrome b (Saccharomyces cerevisiae (strain ATCC 204508 / S288c) (Baker's yeast)), P00163 [S20T], sequence (P00163 whole entry S20T): as the sequence (P00163 whole entry G37D) above, with S20T, D37G counted along it
Cytochrome b (Saccharomyces cerevisiae (strain ATCC 204508 / S288c) (Baker's yeast)), P00163 [Q22T], sequence (P00163 whole entry Q22T): as the sequence (P00163 whole entry G37D) above, with Q22T, D37G counted along it
Cytochrome b (Candida albicans (strain SC5314 / ATCC MYA-2876) (Yeast)), P0C8L0 [G37C], sequence (P0C8L0 whole entry G37C): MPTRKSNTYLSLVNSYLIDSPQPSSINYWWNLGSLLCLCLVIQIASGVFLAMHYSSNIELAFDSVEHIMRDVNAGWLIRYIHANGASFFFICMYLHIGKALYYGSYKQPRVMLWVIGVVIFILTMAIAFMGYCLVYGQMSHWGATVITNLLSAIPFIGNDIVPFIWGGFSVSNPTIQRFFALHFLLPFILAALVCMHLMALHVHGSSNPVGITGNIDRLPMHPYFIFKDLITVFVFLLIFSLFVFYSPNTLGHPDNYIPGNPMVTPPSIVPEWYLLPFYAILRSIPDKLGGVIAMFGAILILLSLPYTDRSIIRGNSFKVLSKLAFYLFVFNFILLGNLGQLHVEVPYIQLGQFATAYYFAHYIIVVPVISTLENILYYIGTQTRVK

| SMILES | MIC (Candida albicans [1]) [µg/mL] | Activity (Cryptococcus neoformans [2]) | Activity [3] | Activity [4] | Activity (Nakaseomyces glabratus [5]) | Activity (Nakaseomyces glabratus [6]) | Activity (Candida albicans [7]) | Activity (Candida albicans [8]) | Activity (Candida albicans [1]) | Activity (Pichia kudriavzevii) | Activity (Clavispora lusitaniae) | Activity (Candida parapsilosis) | Activity (Candida tropicalis) | Activity (Cryptococcus neoformans [9]) | other results |
| --- | --- | --- | --- | --- | --- | --- | --- | --- | --- | --- | --- | --- | --- | --- | --- |
| C/C=C/[C@@H]1[C@H]2C[C@@H](C)CC[C@@H]2C(C)=C[C@H]1/C(=N\O)c1c(O)c(-c2ccc(O)cc2)c[nH]c1=O | > 10 | – | – | – | – | – | – | – | – | – | – | – | – | – | – |
| C/C=C/[C@@H]1[C@H]2C[C@@H](C)CC[C@@H]2C(C)=C[C@H]1/C1=N/NCCOCC12C(=O)NC=C(c1ccc(O)cc1)C2=O (some centres not stated) | > 10 | – | – | – | – | – | – | – | – | – | – | – | – | – | – |
| CC[C@H](C)C[C@H](C)CCCCCCCCC(=O)N[C@H]1C[C@@H](O)[C@@H](NCCN)NC(=O)[C@@H]2[C@@H](O)CCN2C(=O)[C@H]([C@H](O)CCN)NC(=O)[C@H]([C@H](O)[C@@H](O)c2ccc(O)cc2)NC(=O)[C@@H]2C[C@@H](O)CN2C(=O)[C@H]([C@@H](C)O)NC1=O | – | Active | Active | Active | Active | Active | Active | Active | Active | Active | Active | Active | Active | Active | – |
| CO/C(=C/C(N)=O)[C@H](C)[C@H](/C=C/c1csc(-c2csc([C@@H](C)/C=C/C=C/C(C)C)n2)n1)OC | – | – | – | – | – | – | – | – | – | – | – | – | – | – | inhibition [10]: Active; inhibition [11]: Active; inhibition [12]: Active; inhibition [13]: Active; inhibition [14]: Active; inhibition [15]: Active; inhibition [16]: Active; inhibition [17]: Active; inhibition [18]: Active; inhibition [19]: Active; inhibition [20]: Active; inhibition [21]: Active |
| C[C@@H]1[C@H](O)[C@@H](C)/C=C/C=C/C=C/C=C/C=C/C=C/C=C/[C@H](O[C@@H]2O[C@H](C)[C@@H](O)[C@H](N)[C@@H]2O)C[C@@H]2O[C@](O)(C[C@@H](O)C[C@@H](O)[C@H](O)CC[C@@H](O)C[C@@H](O)CC(=O)O[C@H]1C)C[C@H](O)[C@H]2C(=O)O | – | Active | Active | Active | Active | Active | Active | Active | Active | Active | Active | Active | Active | Active | – |
| OC(Cn1cncn1)(Cn1cncn1)c1ccc(F)cc1F | – | Active | Active | Active | Active | Active | Active | Active | Active | Active | Active | Active | Active | Active | – |
| C/C=C/[C@H]1C(c2noc3c(-c4ccc(O)cc4)c[nH]c(=O)c23)C=C(C)[C@H]2CC[C@H](C)C[C@@H]21 (single isomer, unassigned) | > 10 | – | – | – | – | – | – | – | – | – | – | – | – | – | – |
| C/C=C/[C@H]1C(c2n[nH]c3c(-c4ccc(O)cc4)c[nH]c(=O)c23)C=C(C)[C@H]2CC[C@H](C)C[C@@H]21 (single isomer, unassigned) | 0.25 (≈ 0.582 µM) | – | – | – | – | – | – | – | – | – | – | – | – | – | Ratio [22]: 10; IC50 [23]: 0.003 µg/mL (≈ 0.00698 µM) |
